Several values for one entry are separate records, joined by “and”; a condition that tells them apart may be missing. Equal entries are not always repeated.
Settings: Torsion effusion method

[I][Yb][I] [ytterbium(II) iodide]
Settings | vapor or sublimation pressure
968 K, Crystal | 1.9e-05 kPa
975 K, Crystal | 2.8e-05 kPa
976 K, Crystal | 2.8e-05 kPa
978 K, Crystal | 3.8e-05 kPa
982 K, Crystal | 3.8e-05 kPa
987 K, Crystal | 3.8e-05 kPa
989 K, Crystal | 3.8e-05 kPa and 4.8e-05 kPa and 5.6e-05 kPa
991 K, Crystal | 4.8e-05 kPa
996 K, Crystal | 5.6e-05 kPa and 6.6e-05 kPa
997 K, Crystal | 6.3e-05 kPa
998 K, Crystal | 5.6e-05 kPa
999 K, Crystal | 5.6e-05 kPa
1003 K, Crystal | 6.3e-05 kPa
1005 K, Crystal | 8.5e-05 kPa
1006 K, Crystal | 7.6e-05 kPa and 7.9e-05 kPa
1008 K, Crystal | 6.3e-05 kPa and 7.6e-05 kPa
1011 K, Crystal | 8.5e-05 kPa
1013 K, Crystal | 7.9e-05 kPa and 0.000115 kPa
1014 K, Crystal | 9.3e-05 kPa
1015 K, Crystal | 9.5e-05 kPa
1017 K, Crystal | 9.5e-05 kPa
1019 K, Crystal | 9.3e-05 kPa
1020 K, Crystal | 0.000115 kPa
1021 K, Crystal | 0.000141 kPa
1022 K, Crystal | 0.000126 kPa
1023 K, Crystal | 0.00011 kPa
1025 K, Crystal | 0.000132 kPa
1026 K, Crystal | 0.000132 kPa
1029 K, Crystal | 0.000126 kPa
1030 K, Crystal | 0.000158 kPa and 0.000151 kPa and 0.000182 kPa
1034 K, Crystal | 0.00017 kPa
1035 K, Crystal | 0.000158 kPa and 0.00017 kPa and 0.000182 kPa
1038 K, Crystal | 0.000219 kPa
1039 K, Crystal | 0.000174 kPa and 0.000204 kPa
1040 K, Crystal | 0.000209 kPa
1043 K, Crystal | 0.000229 kPa [middle of 4 runs]
1046 K, Crystal | 0.000282 kPa
1049 K, Crystal | 0.000234 kPa and 0.000282 kPa
1068 K, Liquid | 0.000468 kPa
1073 K, Liquid | 0.000501 kPa
1078 K, Liquid | 0.000631 kPa
1082 K, Liquid | 0.000631 kPa
1087 K, Liquid | 0.000759 kPa
1092 K, Liquid | 0.000813 kPa
1098 K, Liquid | 0.001 kPa
1101 K, Liquid | 0.001 kPa
1103 K, Liquid | 0.001202 kPa
1108 K, Liquid | 0.00138 kPa
1111 K, Liquid | 0.001259 kPa
1112 K, Liquid | 0.001445 kPa
1117 K, Liquid | 0.001698 kPa
1119 K, Liquid | 0.001585 kPa
1122 K, Liquid | 0.001862 kPa
1127 K, Liquid | 0.002138 kPa
1128 K, Liquid | 0.001995 kPa
1132 K, Liquid | 0.002239 kPa
1137 K, Liquid | 0.002754 kPa
1138 K, Liquid | 0.002512 kPa
1143 K, Liquid | 0.002951 kPa
1148 K, Liquid | 0.003388 kPa and 0.00309 kPa
1152 K, Liquid | 0.003548 kPa
1158 K, Liquid | 0.004365 kPa and 0.003981 kPa
1162 K, Liquid | 0.004786 kPa
1168 K, Liquid | 0.005754 kPa and 0.005129 kPa
1173 K, Liquid | 0.006026 kPa
1179 K, Liquid | 0.006918 kPa and 0.006761 kPa
1183 K, Liquid | 0.007586 kPa
1189 K, Liquid | 0.00871 kPa
1192 K, Liquid | 0.008913 kPa

[Br][Yb]([Br])[Br] [ytterbium tribromide]
Crystal
Settings | vapor or sublimation pressure
891 K | 4.7e-05 kPa
897 K | 7.9e-05 kPa and 6.3e-05 kPa
905 K | 9.3e-05 kPa and 6.3e-05 kPa
906 K | 0.000126 kPa
909 K | 0.00011 kPa
912 K | 7.9e-05 kPa
913 K | 0.00011 kPa
915 K | 0.000158 kPa
916 K | 0.000158 kPa
920 K | 0.000126 kPa
923 K | 0.000158 kPa and 0.000219 kPa
924 K | 0.000219 kPa
926 K | 0.000219 kPa
928 K | 0.000191 kPa
929 K | 0.000158 kPa
932 K | 0.000316 kPa
933 K | 0.000316 kPa
934 K | 0.000347 kPa
936 K | 0.000251 kPa and 0.000219 kPa
937 K | 0.000347 kPa
938 K | 0.000282 kPa
940 K | 0.000427 kPa
942 K | 0.000437 kPa
943 K | 0.000468 kPa
945 K | 0.000468 kPa and 0.000331 kPa
946 K | 0.000347 kPa
947 K | 0.00038 kPa
948 K | 0.000562 kPa
952 K | 0.000631 kPa
953 K | 0.000692 kPa
954 K | 0.000631 kPa
955 K | 0.000525 kPa
956 K | 0.000537 kPa and 0.000501 kPa
958 K | 0.000794 kPa
963 K | 0.000851 kPa
964 K | 0.000933 kPa
965 K | 0.000759 kPa [middle of 4 runs]
969 K | 0.001122 kPa
972 K | 0.001175 kPa
973 K | 0.000977 kPa and 0.001259 kPa
974 K | 0.000933 kPa and 0.00138 kPa
975 K | 0.000977 kPa
978 K | 0.001585 kPa
979 K | 0.001122 kPa
980 K | 0.001585 kPa
982 K | 0.001698 kPa
983 K | 0.00138 kPa
984 K | 0.001349 kPa
985 K | 0.001995 kPa
988 K | 0.002042 kPa
990 K | 0.002188 kPa
991 K | 0.001622 kPa
992 K | 0.001905 kPa
993 K | 0.00257 kPa
994 K | 0.001905 kPa
995 K | 0.002754 kPa
997 K | 0.002692 kPa
1000 K | 0.002399 kPa
1002 K | 0.002512 kPa
1003 K | 0.003631 kPa
1006 K | 0.003467 kPa
1008 K | 0.004169 kPa
1009 K | 0.003162 kPa
1012 K | 0.003388 kPa
1013 K | 0.004677 kPa
1018 K | 0.003981 kPa
1021 K | 0.004365 kPa and 0.00631 kPa
1022 K | 0.006457 kPa
1026 K | 0.005012 kPa
1032 K | 0.005754 kPa

[I][Lu]([I])[I] [lutetium triiodide]
Crystal
Settings | vapor or sublimation pressure
862 K | 3e-05 kPa
875 K | 6e-05 kPa
883 K | 7.6e-05 kPa
888 K | 8.9e-05 kPa
892 K | 7.6e-05 kPa
893 K | 0.000105 kPa
894 K | 0.00012 kPa
895 K | 0.00012 kPa
896 K | 0.000151 kPa
897 K | 0.00012 kPa
898 K | 0.000151 kPa
899 K | 0.000151 kPa
900 K | 0.000105 kPa
901 K | 0.00012 kPa
904 K | 0.000151 kPa and 0.000182 kPa
905 K | 0.000182 kPa
906 K | 0.000224 kPa and 0.000166 kPa
909 K | 0.000209 kPa and 0.000151 kPa and 0.000166 kPa
911 K | 0.00024 kPa and 0.000195 kPa
912 K | 0.000209 kPa
913 K | 0.00024 kPa
915 K | 0.000269 kPa
916 K | 0.000302 kPa and 0.00024 kPa
917 K | 0.000347 kPa
918 K | 0.00024 kPa
919 K | 0.000209 kPa
920 K | 0.000269 kPa and 0.000288 kPa
921 K | 0.000331 kPa
923 K | 0.000372 kPa
924 K | 0.000363 kPa
926 K | 0.000269 kPa and 0.000447 kPa
927 K | 0.000347 kPa
928 K | 0.000513 kPa and 0.000363 kPa and 0.000389 kPa
929 K | 0.000389 kPa
931 K | 0.000513 kPa
932 K | 0.000501 kPa
933 K | 0.000575 kPa
935 K | 0.000537 kPa
936 K | 0.000513 kPa
937 K | 0.000513 kPa
938 K | 0.000724 kPa [middle of 4 runs]
940 K | 0.000692 kPa
942 K | 0.000759 kPa
943 K | 0.000759 kPa and 0.000692 kPa
945 K | 0.000692 kPa and 0.000575 kPa and 0.000724 kPa
948 K | 0.001047 kPa and 0.000776 kPa
949 K | 0.000933 kPa
950 K | 0.001023 kPa
951 K | 0.001072 kPa and 0.000891 kPa
952 K | 0.001122 kPa
953 K | 0.000933 kPa
954 K | 0.001 kPa
955 K | 0.000832 kPa
958 K | 0.001413 kPa and 0.001445 kPa and 0.001148 kPa
959 K | 0.001445 kPa and 0.00123 kPa
960 K | 0.001514 kPa
961 K | 0.001479 kPa
962 K | 0.001349 kPa
963 K | 0.001413 kPa
964 K | 0.00123 kPa
967 K | 0.00195 kPa and 0.001622 kPa
968 K | 0.002239 kPa and 0.001995 kPa
969 K | 0.001622 kPa
970 K | 0.002138 kPa
972 K | 0.001905 kPa and 0.002239 kPa and 0.00182 kPa
974 K | 0.001738 kPa
975 K | 0.002138 kPa
976 K | 0.002951 kPa and 0.00257 kPa
977 K | 0.002884 kPa and 0.002138 kPa
978 K | 0.002455 kPa
979 K | 0.002291 kPa and 0.002951 kPa
983 K | 0.002951 kPa and 0.002399 kPa
985 K | 0.003631 kPa and 0.003162 kPa and 0.003236 kPa
986 K | 0.003981 kPa and 0.003715 kPa
987 K | 0.00302 kPa
991 K | 0.004266 kPa
993 K | 0.004677 kPa and 0.00389 kPa
994 K | 0.004074 kPa and 0.003388 kPa and 0.004169 kPa
995 K | 0.005012 kPa and 0.003631 kPa
996 K | 0.005012 kPa
1004 K | 0.00631 kPa and 0.005623 kPa
